Assay results reported in patent publication US6384052B1, “Anticoccidial compounds” (Merck & Co., Inc., priority 1999, dated 2002).

Columns and labels:
[1] = Acute Toxicity Evaluation (intraperitoneal, twice a day for three days); type: in vivo; conditions: 100 mg/kg/day intraperitoneally, necropsy on day 4, two chickens per group
Procedure: For acute toxicity evaluation, chickens are dosed intraperitoneally twice a day at desired dose for three days. On day 4 birds are necropsied and examined for gross lesions and weight suppression. Two chickens are used in each treatment group.

[2] = tested on: Eimeria acervulina, E. tenella; assay: Anticoccidiosis assay (oocyst production in infected chickens on medicated diet); type: in vivo, White Leghorn chickens; set-up: key: at least 80% reduction in oocyst production are considered active; those with 50-79% are considered partially active; those with <50% are considered inactive; conditions: 100 ppm in diet; chickens infected with E. acervulina or E. tenella
Procedure: (§1) Compound of the present invention and 2-(4-fluorophenyl)-5-(N-methylpiperidin-4-yl)-3-(4-pyridyl)pyrrole were evaluated in anticoccidiosis assay and toxicology studies. In these studies, medicated diets were prepared by dissolving the proper quantity of the test compound in dimethylsulfoxide or acetone, mixing the resultant solution into a few grams of the basal diet, and then placing the mixture under a fume hood for dehydration. The dry mixture is made into a uniform premix with an electric grinder, and then blended with the desired quantity of basal diet for the final formulation in a commercial bowl mixer.
One-day-old White Leghorn chickens are obtained from a commercial hatchery and acclimated in a holding room. At three days of age the test animals are selected by weight, wingbanded, and randomly placed on medicated or control diets for the duration of the experiment. One or two replicates of two birds are utilized per treatment. Following 24 h premedication, in each replicate one bird is infected with Eimeria acervulina, the other bird is infected with E. tenella. Both strains of Eimeria are sensitive to all anticoccidial products, and have been maintained in laboratory conditions for over 25 years. […] The measured parameters are weight gain, feed consumption and oocyst production. E. tenella lesion scores are also recorded for background information. […]

[3] = Toxicity Evaluation (38-day medicated diet, liver necrosis and urate crystal deposition); type: in vivo, male broiler chickens; conditions: 125 ppm in diet; for chickens with urate crystal deposition in the kidneys: affected/examined
Procedure: as §1
Day-old male broiler chickens are received on Day 0 of the trial, weighed, wingbanded, and placed on medicated or control diet in standard battery cages. Three treatments are used in the study: (A) medicated diet containing 125 ppm of 2-(4-fluorophenyl)-5-(N-methylpiperidin-4-yl)-3-(4-pyridyl)pyrrole; (B) medicated diet containing 125 ppm of 2-(4-fluorophenyl)-5-(N-ethylpiperidin-4-yl)-3-(4-pyridyl)pyrrole; and (C) no medication. A total of 48 chickens are utilized per treatment. Of these, 12 birds (2 replicates of 6) are examined on D7, D14, D24 and D38 for liver necrosis and urate crystal deposition. Growth rates, feed efficiency and plasma levels are determined for background information. The trial is terminated on D38.

| SMILES | liver necrosis / gross liver lesions at necropsy [1] | anticoccidial activity (reduction in oocyst production) [2] | chickens showing liver necrosis or urate crystal deposition ([3]; 12 birds examined on each of D7, D14, D24 and D38) | chickens with urate crystal deposition in the kidneys ([3]; examined on D14) | chickens with urate crystal deposition in the kidneys ([3]; examined on D38) |
| --- | --- | --- | --- | --- | --- |
| CCN1CCC(c2cc(-c3ccncc3)c(-c3ccc(F)cc3)[nH]2)CC1 [2-(4-fluorophenyl)-5-(N-ethylpiperidin-4-yl)-3-(4-pyridyl)pyrrole] | none | active | None |  |  |
| CN1CCC(c2cc(-c3ccncc3)c(-c3ccc(F)cc3)[nH]2)CC1 [2-(4-fluorophenyl)-5-(N-methylpiperidin-4-yl)-3-(4-pyridyl)pyrrole] | demonstrated gross liver lesions | active |  | 3/12 | 4/12 |
